Paper PMC5989272, “Transfer Hydrogenation and Antiproliferative Activity of Tethered Half-Sandwich Organoruthenium Catalysts” (Organometallics, 2018)

Experiments:
[1] = system: A2780 human ovarian cancer cells; test: Cell viability on coincubation with sodium formate (SRB); details: 0.5, 1 and 2 mM sodium formate
Description: Experiments included three sets of controls: the first, negative controls, consisted of untreated cells (only vehicle exposure), a second set was exposed to three concentrations of sodium formate (0.5, 1, and 2 mM), and a third set was exposed to cisplatin as positive controls. […] Following 72 h of recovery time in drug-free medium, cell survival was evaluated using the Sulforhodamine B colorimetric assay.
Cell viability assays of complexes 1–4 were carried out with A2780 ovarian cancer cells with sodium formate. […] Drug stock solutions (ca. 100 μM) were prepared as described for in vitro growth inhibition assays and then further diluted with media until working concentrations were achieved. Separately, a stock solution of sodium formate was prepared in saline. The complex and formate solutions were added to each well independently within 5 min of each other. All other experimental conditions were kept unchanged (drug exposure, cell recovery time, and end point assay used). The standard deviations were calculated.

[2] = system: HEPG2 human hepatocellular cancer cells; test: Antiproliferative activity (SRB assay), HEPG2; type: cell-based; details: 24 h drug exposure, 72 h recovery in drug-free medium
Description: (§1) A2780 and A2780Cis human ovarian, A549 human lung, HEPG 2 human hepatocellular, MCF 7 human breast cancer, and MRC 5 human normal fibroblast cell lines were grown in Roswell Park Memorial Institute medium (RPMI-1640) supplemented with 10% of fetal calf serum, 1% of 2 mM glutamine, and 1% penicillin/streptomycin. All cells were grown as adherent monolayers at 310 K with 5% CO2 humidified, and all cells were passaged at ca. 80% confluency.
(§2) The antiproliferative activity and cytotoxicity of complexes 1–4 were determined in five different cancer cell lines and one human normal cell line. In general, about 5000 cells per well were seeded in 96-well plates. The plates were preincubated with drug-free medium at 310 K for 48 h before adding the tested compounds (various concentrations). Stock solutions of complexes 1–4 were prepared in DMSO/cell culture medium, and exact complex concentrations were determined by ICP-OES. […] A further cell recovery for 72 h was allowed in drug-free medium at 310 K. The sulforhodamine B (SRB) assay was used to determine cell viability. IC50 values, as the concentration that causes 50% cell death, were determined as duplicates of triplicates in two independent sets of experiments, and their standard deviations were calculated.

[3] = NAD+ to NADH, formate hydride donor; Ru/NAD+/formate 1/4/25, DMSO-d6/D2O, pH* 7.2, 310 K
Description: (§3) Catalytic transfer hydrogenation reactions of complexes 1–4 and sodium formate as hydride donor for conversion of nicotinamide adenine dinucleotide (NAD^+) to NADH were studied in aqueous media by UV–visible spectroscopy by following the absorbance at 340 nm for NADH and by ^1H NMR spectroscopy (20% DMSO-d6 in D2O) by monitoring peaks corresponding to 1,4-NADH.
Complexes 1–4 were dissolved in DMSO-d6/D2O (3/2 v/v; 1.4 mM) in a glass vial. Aliquots (200 μL) of solutions of sodium formate (35 mM) and NAD^+ (5.6 mM) in D2O were added, and the pH* was adjusted to 7.2 ± 0.1, for a final volume of 0.64 mL (Ru complex 0.44 mM, NAD^+ 1.75 mM, NaHCO2 10.94 mM; molar ratio 1/4/25). The solution was transferred to a 5 mm NMR tube, and a ^1H NMR spectrum was recorded at 310 K every 162 s until the completion of the reaction. Molar ratios of NAD^+ and NADH were determined by integrating the peaks corresponding to resonances for NAD^+ (9.33 ppm) and 1,4-NADH (6.96 ppm). The turnover number (TON) for the reaction was calculated [drawing 1] where In is the integral of the signal at n ppm and [NAD^+] is the concentration of NAD^+ at the start of the reaction.

A2780Cis cells = details: 24 h exposure at equipotent IC50 concentration, no recovery
Description: (§4) ICP-MS and ICP-OES analyses were carried out on Agilent Technologies 7500 series and PerkinElmer Optima 5300 DV series instruments, respectively. The double-deionized (DDW) water used for both analyses was from a Millipore Milli-Q water purification system and a USF Elga UHQ water deionizer. The Ruthenium Specpure plasma standard (ruthenium chloride, 1004 ± 5 μg/mL in 10% v/v hydrochloric acid) was diluted with 3.6% v/v HNO3, and calibrants were prepared freshly at concentrations of 0.1–500 ppb for ICP-MS and 50–700 ppb for ICP-OES. In particular, calibration standards for ICP-OES analysis were adjusted with standard sodium chloride (TraceSELECT) solution to match the sample salinity. The instrument was set to detect ^101Ru with typical detection using no-gas mode for ICP-MS analysis.
(§5) Cellular Ru accumulations for complexes 2 and 4 were determined on A2780 ovarian and A2780 cisplatin-resistant ovarian cancer cells. Approximately 2 × 10^6 cells were seeded in a six-well plate and preincubated in drug-free medium at 310 K for 24 h, and stock solutions of both complexes were prepared in a mixture of DMSO/cell culture medium and their accurate Ru concentrations were determined by ICP-OES. […] After this time, cells were treated with trypsin and counted and cell pellets were collected. […] Statistical significances of variations were determined using Welch’s t-tests.

[4] = system: A2780 human ovarian cancer cells; details: 24 h exposure at equipotent IC50 concentration, no recovery
Description: as §4, §5

[5] = NAD+ to NADH, formate hydride donor; Ru/NAD+/formate 1/6/1200, pH 7.2, 310 K, 340 nm
Description: as §3
Complexes 1–4 were dissolved in DMSO/H2O (1/9 v/v) (84 μM) in a glass vial. Solutions of sodium formate (102 mM) and NAD^+ in H2O (510 μM) were also prepared and then mixed at 310 K. In a typical experiment, an aliquot of 330 μL from each solution was placed in a 1 mL cuvette and the pH adjusted to 7.2 before the sample was introduced into the UV–vis instrument, giving a total volume of 1 mL (final concentrations were Ru complex 28 μM, NAD^+ 170 μM, NaHCO2 34 mM, molar ratio 1/6/1200). UV spectra were recorded every 5 min until completion of the reaction. The spectrum was monitored for an increase in the band at 340 nm, which corresponds to the absorption of NADH.

[6] = system: A2780 human ovarian cancer cells; test: Antiproliferative activity (SRB assay), A2780; type: cell-based; details: 24 h drug exposure, 72 h recovery in drug-free medium
Description: as §1, §2

[7] = system: MCF7 human breast cancer cells; test: Antiproliferative activity (SRB assay), MCF7; type: cell-based; details: 24 h drug exposure, 72 h recovery in drug-free medium; read-out: IC50 MCF 7
Description: as §1, §2

[8] = system: A549 human lung cancer cells; test: Antiproliferative activity (SRB assay), A549; type: cell-based; details: 24 h drug exposure, 72 h recovery in drug-free medium
Description: as §1, §2

[9] = system: MRC5 normal human lung fibroblast cells; test: Cytotoxicity (SRB assay), MRC5 normal fibroblasts; type: cell-based; details: 24 h drug exposure, 72 h recovery, read-out: IC50 MRC 5
Description: as §1, §2

[10] = system: A2780Cis cisplatin-resistant ovarian cancer cells; test: Antiproliferative activity (SRB assay), A2780Cis; type: cell-based, human; details: for IC50: 24 h drug exposure, 72 h recovery in drug-free medium; for RI (resistance index): ratio of IC50 A2780Cis to parental A2780
Description: as §1, §2

[11] = set-up: method as in PMID 16604356; details: cited from earlier work
[12] = system: single-stranded 50-mer oligonucleotide; test: Binding to single-stranded 50-mer oligonucleotide (FAAS); details: ri = 0.5, 0.05 M NaClO4, 310 K, 24 h, dark
Description: (§6) After 24 h the reaction was stopped, and samples were exhaustively dialyzed against water. The ruthenium contents in these samples were determined by FAAS, and the concentrations of DNA were determined by absorption spectroscopy.

[13] = system: double-stranded 50-mer oligonucleotide; test: Binding to double-stranded 50-mer oligonucleotide (FAAS); details: ri = 0.5, 0.05 M NaClO4, 310 K, 24 h, dark
Description: as §6

[14] = system: double-helical calf thymus DNA (ct-DNA); test: Binding to calf thymus DNA (FAAS after dialysis); details: ri 0.1 and 0.5, 10 mM NaClO4, 310 K, 24 h
Description: The reaction was terminated after 24 h of incubation, and samples were exhaustively dialyzed against water. The ruthenium content in these samples was determined by flameless atomic absorption spectrometry (FAAS) and the concentration of DNA by absorption spectrophotometry.

[15] = system: A2780 human ovarian cancer cells; test: ROS/superoxide induction (flow cytometry); type: cell-based; details: IC50 concentration, 24 h; pyocyanin 30 min
Description: The total level of oxidative stress, including H2O2, peroxy and hydroxyl radical, peroxynitrite, NO, and superoxide production, was monitored using the green channel FL1 and orange channel FL2, respectively.
Positive controls were obtained by exposure of cells to pyocyanin for 30 min. Data were processed using Flowjo software. At all times, samples were kept under dark conditions to avoid light-induced ROS production.

| Molecule | IC50 [2] [µM] | TOF (NMR) [3] [h^–1] | TOF (UV–vis) [5] [h^–1] | IC50 [6] [µM] | IC50 [7] [µM] | IC50 [8] [µM] | IC50 [9] [µM] | IC50 [10] [µM] | RI (resistance index) [10] | other results |
| --- | --- | --- | --- | --- | --- | --- | --- | --- | --- | --- |
| O=C[O-].[Na+] [sodium formate] | – | – | – | – | – | – | – | – | – | toxicity of formate alone [1]: not toxic |
| [Ru(η^6-Ph(CH2)3-ethylenediamine-N-Nb)Cl] [Complex 4] | 23 ± 4 | 8.5 ± 0.2 | 9.9 ± 0.2 | 16 ± 0.3 | 9.9 ± 0.5 | 30 ± 1 | 26 ± 1 | > 50 | >3 | cellular Ru content (A2780Cis cells): 241 ± 10 ng per million cells; cellular Ru content [4]: 150 ± 38 ng per million cells |
| F[P-](F)(F)(F)(F)F.NCCN.[Cl][Ru+].c1ccc(-c2ccccc2)cc1 [RM175, [(η^6-biph)Ru(en)Cl]PF6] | – | – | – | – | – | – | – | – | – | TOF for TH reduction of NAD+ [11]: 0.18 h^–1 |
| Cc1ccc(C(C)C)cc1.Cc1ccc(S(=O)(=O)[N](CCN)[Ru][Cl])cc1 [JS2, [(η^6-p-cym)Ru(TsEn)Cl]] | – | – | – | – | – | – | – | – | – | TOF for TH reduction of NAD+ [11]: 2.88 h^–1; Ru bound to single-stranded oligonucleotide [12]: No Ru associated; Ru bound to double-stranded oligonucleotide [13]: No Ru associated; ruthenium bound to ct-DNA [14]: No detectable amount of ruthenium |
| [Ru(η^6-Ph(CH2)3-ethylenediamine-N-Ms)Cl] [Complex 1] | 27.8 ± 0.1 | 3.79 ± 0.05 | 5.8 ± 0.2 | 23 ± 1 | 28.9 ± 0.9 | 33 ± 1 | 31 ± 1 | > 50 | >2 | – |
| [Ru(η^6-Ph(CH2)3-ethylenediamine-N-Tf)Cl] [Complex 3] | > 50 | 8.9 ± 0.3 | 8.69 ± 0.07 | > 50 | 24 ± 3 | 31 ± 2 | 28 ± 3 | > 50 | – | – |
| [NH2][Pt]([NH2])([Cl])[Cl] [CDDP, cisplatin, reference compound] | 5.7 ± 0.9 | – | – | 1.2 ± 0.02 | 7.3 ± 0.2 | 3.1 ± 0.1 | 12.8 ± 0.3 | 13.4 ± 0.3 | 11 | selectivity index between MRC5 normal cells and A2780Cis cancer cells ([10]; MRC5 vs A2780Cis): 0.95 |
| Cn1c2cccc(=O)c-2nc2ccccc21 [Pyocyanin, pyocyanin] | – | – | – | – | – | – | – | – | – | Cell Populations FL-1+/FL-2+ [15]: 96.1 ± 0.8%; Cell Populations FL-1+/FL-2- (total oxidative stress) [15]: 1.5 ± 0.6%; Cell Populations FL-1-/FL-2+ (superoxide) [15]: 2.5 ± 0.9%; Cell Populations FL-1-/FL-2- [15]: 0.45 ± 0.08% |
